Experimental findings from ChEMBL document CHEMBL3991601, “The target landscape of clinical kinase drugs” (Science, 2017) are described below.

In experiment [1] the target is T1, Activin receptor type-1 (Homo sapiens, UniProt Q04771).
T1 sequence (Q04771 whole entry): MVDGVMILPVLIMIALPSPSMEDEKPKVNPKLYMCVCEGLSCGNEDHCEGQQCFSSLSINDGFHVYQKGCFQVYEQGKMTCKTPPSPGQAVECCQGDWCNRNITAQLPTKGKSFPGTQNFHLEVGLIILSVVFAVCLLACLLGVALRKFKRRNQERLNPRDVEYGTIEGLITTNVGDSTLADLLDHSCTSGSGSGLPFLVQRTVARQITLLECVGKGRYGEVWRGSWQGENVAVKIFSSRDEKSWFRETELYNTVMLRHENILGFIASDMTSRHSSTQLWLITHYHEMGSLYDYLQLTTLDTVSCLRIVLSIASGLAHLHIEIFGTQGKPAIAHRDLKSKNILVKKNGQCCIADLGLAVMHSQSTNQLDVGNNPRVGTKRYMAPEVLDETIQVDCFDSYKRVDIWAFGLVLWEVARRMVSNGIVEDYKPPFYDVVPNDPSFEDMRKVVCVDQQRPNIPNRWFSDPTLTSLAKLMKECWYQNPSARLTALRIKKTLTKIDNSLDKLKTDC

In experiment [2] the target is T2, AarF domain-containing protein kinase 1 (Homo sapiens, UniProt Q86TW2).
T2 sequence (Q86TW2 whole entry): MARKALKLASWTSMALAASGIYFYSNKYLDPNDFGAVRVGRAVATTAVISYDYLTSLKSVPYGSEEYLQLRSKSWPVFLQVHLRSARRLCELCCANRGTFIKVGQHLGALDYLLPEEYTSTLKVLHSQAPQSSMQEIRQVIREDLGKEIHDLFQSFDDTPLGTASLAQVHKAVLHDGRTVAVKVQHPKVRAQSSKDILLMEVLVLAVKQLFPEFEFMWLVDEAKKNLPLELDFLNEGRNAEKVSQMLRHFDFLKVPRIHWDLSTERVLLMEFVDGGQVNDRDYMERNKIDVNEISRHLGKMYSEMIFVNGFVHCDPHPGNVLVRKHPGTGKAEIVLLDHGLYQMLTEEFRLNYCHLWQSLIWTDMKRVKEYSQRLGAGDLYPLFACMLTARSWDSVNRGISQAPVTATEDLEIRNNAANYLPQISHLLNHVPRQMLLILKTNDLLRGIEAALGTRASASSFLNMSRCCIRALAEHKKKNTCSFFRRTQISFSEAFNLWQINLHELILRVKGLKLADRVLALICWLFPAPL

Experiment [3] deals with T3, Bone morphogenetic protein receptor type-2 (Homo sapiens, UniProt Q13873).
T3 sequence (Q13873 whole entry): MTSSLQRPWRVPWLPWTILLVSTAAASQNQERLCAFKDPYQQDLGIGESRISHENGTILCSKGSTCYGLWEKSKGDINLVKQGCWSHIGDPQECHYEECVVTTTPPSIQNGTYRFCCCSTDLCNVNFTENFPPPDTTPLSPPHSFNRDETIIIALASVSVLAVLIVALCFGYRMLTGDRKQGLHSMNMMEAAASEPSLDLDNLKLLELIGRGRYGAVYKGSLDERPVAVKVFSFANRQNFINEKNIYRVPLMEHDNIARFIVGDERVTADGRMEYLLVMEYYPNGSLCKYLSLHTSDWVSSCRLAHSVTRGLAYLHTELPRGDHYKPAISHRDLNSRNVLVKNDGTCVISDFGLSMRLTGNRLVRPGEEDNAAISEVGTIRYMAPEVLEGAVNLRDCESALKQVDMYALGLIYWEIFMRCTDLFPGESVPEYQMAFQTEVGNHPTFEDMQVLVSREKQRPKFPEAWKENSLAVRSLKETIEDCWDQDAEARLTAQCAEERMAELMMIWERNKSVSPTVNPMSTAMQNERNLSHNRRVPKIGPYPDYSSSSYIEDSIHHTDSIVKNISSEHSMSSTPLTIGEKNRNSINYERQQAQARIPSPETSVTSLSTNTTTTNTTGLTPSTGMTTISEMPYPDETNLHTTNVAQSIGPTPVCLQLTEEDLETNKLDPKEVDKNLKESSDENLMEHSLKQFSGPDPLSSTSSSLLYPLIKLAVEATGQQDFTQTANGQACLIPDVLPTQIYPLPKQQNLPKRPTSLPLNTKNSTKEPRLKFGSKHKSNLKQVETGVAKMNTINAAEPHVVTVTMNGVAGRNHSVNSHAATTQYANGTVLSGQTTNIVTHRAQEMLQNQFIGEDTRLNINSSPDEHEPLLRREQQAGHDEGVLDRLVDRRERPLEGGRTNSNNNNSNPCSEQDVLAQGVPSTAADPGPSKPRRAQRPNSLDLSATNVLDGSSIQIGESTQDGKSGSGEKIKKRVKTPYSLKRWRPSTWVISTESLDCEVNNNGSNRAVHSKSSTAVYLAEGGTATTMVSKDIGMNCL

Experiment [4] deals with Serine/threonine-protein kinase MRCK beta (Homo sapiens, UniProt Q9Y5S2).
Serine/threonine-protein kinase MRCK beta, sequence (Q9Y5S2 whole entry): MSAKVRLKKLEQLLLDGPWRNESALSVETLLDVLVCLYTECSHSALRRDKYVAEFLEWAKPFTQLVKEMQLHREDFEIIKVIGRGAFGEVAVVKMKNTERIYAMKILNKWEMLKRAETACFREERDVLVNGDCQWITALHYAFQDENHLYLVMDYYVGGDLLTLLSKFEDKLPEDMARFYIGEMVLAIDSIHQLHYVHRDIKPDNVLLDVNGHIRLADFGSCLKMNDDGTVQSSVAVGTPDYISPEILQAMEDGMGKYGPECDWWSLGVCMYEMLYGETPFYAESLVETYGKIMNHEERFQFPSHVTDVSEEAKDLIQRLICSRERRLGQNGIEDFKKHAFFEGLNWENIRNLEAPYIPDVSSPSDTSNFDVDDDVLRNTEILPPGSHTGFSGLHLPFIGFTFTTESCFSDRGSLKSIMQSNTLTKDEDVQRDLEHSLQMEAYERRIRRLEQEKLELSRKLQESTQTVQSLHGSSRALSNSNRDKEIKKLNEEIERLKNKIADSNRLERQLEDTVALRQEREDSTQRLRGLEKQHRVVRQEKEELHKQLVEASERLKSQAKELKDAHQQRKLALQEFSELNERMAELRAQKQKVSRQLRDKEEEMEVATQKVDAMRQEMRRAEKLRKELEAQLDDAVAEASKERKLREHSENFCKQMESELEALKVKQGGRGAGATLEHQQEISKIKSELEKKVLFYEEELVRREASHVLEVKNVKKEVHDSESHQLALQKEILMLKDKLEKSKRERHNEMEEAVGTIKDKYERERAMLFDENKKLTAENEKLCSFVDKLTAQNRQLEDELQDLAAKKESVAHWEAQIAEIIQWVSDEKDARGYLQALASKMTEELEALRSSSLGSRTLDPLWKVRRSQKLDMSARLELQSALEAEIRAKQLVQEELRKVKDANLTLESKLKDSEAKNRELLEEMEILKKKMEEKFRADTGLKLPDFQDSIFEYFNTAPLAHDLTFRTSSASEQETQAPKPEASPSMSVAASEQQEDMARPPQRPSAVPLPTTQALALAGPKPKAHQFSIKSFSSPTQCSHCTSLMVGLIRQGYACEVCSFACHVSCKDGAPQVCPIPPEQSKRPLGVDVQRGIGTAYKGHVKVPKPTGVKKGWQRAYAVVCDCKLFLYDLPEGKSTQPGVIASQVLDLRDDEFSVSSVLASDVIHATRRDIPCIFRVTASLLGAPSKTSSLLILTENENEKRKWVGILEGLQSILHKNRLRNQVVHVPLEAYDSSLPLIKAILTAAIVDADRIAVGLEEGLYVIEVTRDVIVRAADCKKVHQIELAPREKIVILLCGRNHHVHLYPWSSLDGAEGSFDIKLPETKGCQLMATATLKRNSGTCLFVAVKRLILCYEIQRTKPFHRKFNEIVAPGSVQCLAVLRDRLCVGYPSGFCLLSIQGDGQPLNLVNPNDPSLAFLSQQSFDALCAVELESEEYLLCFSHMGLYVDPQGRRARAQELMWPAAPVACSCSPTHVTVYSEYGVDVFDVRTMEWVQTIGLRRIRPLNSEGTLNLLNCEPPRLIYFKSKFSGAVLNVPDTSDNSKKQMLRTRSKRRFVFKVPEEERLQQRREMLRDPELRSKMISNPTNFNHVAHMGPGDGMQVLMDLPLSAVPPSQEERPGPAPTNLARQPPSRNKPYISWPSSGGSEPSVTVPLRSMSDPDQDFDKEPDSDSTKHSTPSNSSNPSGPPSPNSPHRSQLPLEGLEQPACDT
Experiment [5] concerns the target Casein kinase II subunit alpha' (Homo sapiens, UniProt P19784).
The target of experiment [6] is Ephrin type-A receptor 4 (Homo sapiens, UniProt P54764).
Ephrin type-A receptor 4, sequence (P54764 whole entry): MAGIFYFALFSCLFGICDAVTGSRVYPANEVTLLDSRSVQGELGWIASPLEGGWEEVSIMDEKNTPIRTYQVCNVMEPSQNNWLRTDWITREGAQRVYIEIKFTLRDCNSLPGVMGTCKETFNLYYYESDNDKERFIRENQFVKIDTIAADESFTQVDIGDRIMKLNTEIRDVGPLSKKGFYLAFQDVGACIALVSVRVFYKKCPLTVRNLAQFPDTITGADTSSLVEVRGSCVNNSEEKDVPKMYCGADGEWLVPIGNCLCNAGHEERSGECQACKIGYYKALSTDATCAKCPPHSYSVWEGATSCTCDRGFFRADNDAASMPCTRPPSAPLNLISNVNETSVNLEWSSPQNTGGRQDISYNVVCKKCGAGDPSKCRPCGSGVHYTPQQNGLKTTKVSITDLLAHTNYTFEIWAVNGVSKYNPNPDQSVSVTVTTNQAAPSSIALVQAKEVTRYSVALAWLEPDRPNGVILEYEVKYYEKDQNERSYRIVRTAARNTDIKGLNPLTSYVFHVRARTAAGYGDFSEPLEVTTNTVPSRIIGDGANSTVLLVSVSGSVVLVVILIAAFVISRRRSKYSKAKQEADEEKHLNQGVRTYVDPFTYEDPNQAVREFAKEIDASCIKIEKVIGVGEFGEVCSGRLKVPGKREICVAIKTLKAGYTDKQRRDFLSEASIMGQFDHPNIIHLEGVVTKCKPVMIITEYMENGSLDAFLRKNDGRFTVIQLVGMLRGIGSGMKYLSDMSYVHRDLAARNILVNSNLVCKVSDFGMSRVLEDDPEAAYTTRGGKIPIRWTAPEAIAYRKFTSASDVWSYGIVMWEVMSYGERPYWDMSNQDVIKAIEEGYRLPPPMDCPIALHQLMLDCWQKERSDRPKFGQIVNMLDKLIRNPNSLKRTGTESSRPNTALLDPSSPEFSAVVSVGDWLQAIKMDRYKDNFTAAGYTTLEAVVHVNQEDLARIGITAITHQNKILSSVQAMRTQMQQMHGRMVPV
The target of experiment [7] is Glycogen synthase kinase-3 alpha (Homo sapiens, UniProt P49840).
Glycogen synthase kinase-3 alpha, sequence (P49840 whole entry): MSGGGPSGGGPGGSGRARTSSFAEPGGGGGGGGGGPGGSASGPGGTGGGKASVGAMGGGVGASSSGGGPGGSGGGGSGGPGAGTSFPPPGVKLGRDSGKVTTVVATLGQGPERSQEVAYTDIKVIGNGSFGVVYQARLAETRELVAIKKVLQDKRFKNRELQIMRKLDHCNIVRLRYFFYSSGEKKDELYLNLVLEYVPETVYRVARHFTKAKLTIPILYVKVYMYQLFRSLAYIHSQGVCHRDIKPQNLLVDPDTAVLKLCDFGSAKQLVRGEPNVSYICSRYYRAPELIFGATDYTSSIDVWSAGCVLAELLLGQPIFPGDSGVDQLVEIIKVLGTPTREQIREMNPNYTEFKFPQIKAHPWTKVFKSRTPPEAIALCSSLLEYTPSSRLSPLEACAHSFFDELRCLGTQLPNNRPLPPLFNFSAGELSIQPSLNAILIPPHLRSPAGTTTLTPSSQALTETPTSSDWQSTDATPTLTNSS
Experiment [8] has as its target Midasin (Homo sapiens, UniProt Q9NU22).
Experiment [9] has as its target Serine/threonine-protein kinase 16 (Homo sapiens, UniProt O75716).
The target of experiment [10] is T4, Serine/threonine-protein kinase ULK3 (Homo sapiens, UniProt Q6PHR2).
T4 sequence (Q6PHR2 whole entry): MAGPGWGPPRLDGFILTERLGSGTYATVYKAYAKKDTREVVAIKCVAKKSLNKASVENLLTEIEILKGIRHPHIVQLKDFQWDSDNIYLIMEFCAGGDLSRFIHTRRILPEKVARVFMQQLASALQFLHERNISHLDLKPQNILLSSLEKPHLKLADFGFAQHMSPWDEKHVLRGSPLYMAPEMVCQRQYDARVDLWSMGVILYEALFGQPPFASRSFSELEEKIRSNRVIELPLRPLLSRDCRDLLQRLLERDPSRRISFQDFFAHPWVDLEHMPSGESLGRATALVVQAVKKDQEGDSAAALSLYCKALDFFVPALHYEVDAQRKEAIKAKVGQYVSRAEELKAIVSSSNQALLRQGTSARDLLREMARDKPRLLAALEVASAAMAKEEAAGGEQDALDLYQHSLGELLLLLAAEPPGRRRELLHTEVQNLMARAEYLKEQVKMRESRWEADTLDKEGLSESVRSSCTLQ

Each structure is given as a SMILES string. The source made the active and inactive calls. Cut-off read from the data, not from the text of the source, for most assays here: actives have a measured Kd and inactives only a lower limit.

As usually defined, the Kd is the free concentration of one partner at which half of the binding sites on the other are occupied at equilibrium, for simple one-to-one binding.
Note: in the data inactive means no Kd found up to 30 µM.

Serine/threonine-protein kinase 16, sequence (O75716 whole entry): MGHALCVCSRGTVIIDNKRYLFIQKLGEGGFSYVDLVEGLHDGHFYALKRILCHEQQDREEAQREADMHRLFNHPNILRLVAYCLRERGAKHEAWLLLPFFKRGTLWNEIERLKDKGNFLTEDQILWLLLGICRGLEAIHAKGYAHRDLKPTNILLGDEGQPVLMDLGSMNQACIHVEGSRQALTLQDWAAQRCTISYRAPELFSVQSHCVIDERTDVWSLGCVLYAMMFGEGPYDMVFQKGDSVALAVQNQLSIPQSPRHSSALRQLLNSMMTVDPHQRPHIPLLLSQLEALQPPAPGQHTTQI
Casein kinase II subunit alpha', sequence (P19784 whole entry): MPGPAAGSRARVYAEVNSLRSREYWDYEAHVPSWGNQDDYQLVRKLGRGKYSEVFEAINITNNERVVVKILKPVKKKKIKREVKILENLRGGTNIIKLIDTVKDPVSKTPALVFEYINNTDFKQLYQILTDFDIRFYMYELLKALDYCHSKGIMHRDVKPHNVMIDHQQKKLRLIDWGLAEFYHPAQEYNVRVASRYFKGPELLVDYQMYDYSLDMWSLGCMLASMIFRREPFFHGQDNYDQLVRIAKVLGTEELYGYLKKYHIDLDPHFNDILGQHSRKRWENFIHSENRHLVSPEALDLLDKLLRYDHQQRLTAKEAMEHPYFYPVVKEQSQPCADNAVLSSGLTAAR

Take `COc1cc([C@@H]2c3cc4c(cc3[C@H](O)[C@H]3COC(=O)[C@@H]23)OCO4)cc(OC)c1OC` [AXL-1717]: the Kd in [1], in [2], in experiment [3], in experiment [4], in [5] and in [6] was > 30 µM (inactive) each time. The Kd in experiment [7], in experiment [8], in [9] and in [10] was > 30 µM (inactive) throughout.
Turning to `NC(=O)Nc1cc(-c2cccc(F)c2)sc1C(=O)N[C@H]1CCCNC1` [AZD-7762], the Kd in experiment [1] was > 30 µM (inactive); in [2], > 30 µM (inactive); in [3] it was > 30 µM (inactive); in experiment [4] it was > 30 µM (inactive); in experiment [5], 3.15 µM (active); in experiment [6], > 30 µM (inactive). For the same molecule, the Kd was > 30 µM (inactive) in [7], > 30 µM (inactive) in experiment [8], > 30 µM (inactive) in experiment [9] and 1.79 µM (active) in experiment [10].
As for `Cc1cc(C(=O)NOCCO)c(Nc2ccc(I)cc2F)n(C)c1=O` [AZD-8330], the Kd in [1], in [2], in [3], in experiment [4], in experiment [5] and in experiment [6] was > 30 µM (inactive) in each case. Moreover, the Kd in [7], in experiment [8], in experiment [9] and in [10] was > 30 µM (inactive) each time.
`Cn1cnc2c(F)c(Nc3ccc(Br)cc3F)c(C(=O)NOCCO)cc21` [BINIMETINIB]: the Kd in experiment [1], in [2], in experiment [3], in [4], in experiment [5] and in experiment [6] was > 30 µM (inactive) in each case. Besides, the Kd in experiment [7], in [8], in experiment [9] and in experiment [10] was > 30 µM (inactive) each time.
`CCn1c(C(=O)N(C2CC2)C2CC2)cc2c3c(ncn3C)c(Nc3cc(C)n(C)n3)nc21` [BMS-911543]: the Kd in experiment [1], in experiment [2], in experiment [3], in experiment [4], in [5] and in experiment [6] was > 30 µM (inactive) in each case. The Kd in experiment [7], in experiment [8], in [9] and in experiment [10] was > 30 µM (inactive) in each case.
`COc1cc2ncnc(Oc3cccc(NC(=O)Nc4cc(C(C)(C)C(F)(F)F)on4)c3)c2cc1OC` [CEP-32496]: the Kd in experiment [1], in experiment [2], in experiment [3], in experiment [4], in experiment [5] and in experiment [6] was > 30 µM (inactive) in each case. The Kd in experiment [7], in experiment [8], in experiment [9] and in [10] was > 30 µM (inactive) in each case.
Regarding `Cc1cc(Nc2ncc(Cl)c(Nc3ccccc3S(=O)(=O)C(C)C)n2)c(OC(C)C)cc1C1CCNCC1` [CERITINIB], the Kd in [1], in experiment [2], in [3], in experiment [4], in experiment [5] and in experiment [6] was > 30 µM (inactive) in each case. In addition, the Kd in [7], in experiment [8], in experiment [9] and in experiment [10] was > 30 µM (inactive) each time.
As to `COc1c(OCCCN2CCOCC2)ccc2c1N=C(NC(=O)c1cnc(N)nc1)N1CCN=C21` [COPANLISIB], the Kd in experiment [1], in experiment [2], in experiment [3], in [4], in experiment [5] and in experiment [6] was > 30 µM (inactive) each time. Further, the Kd in experiment [7], in [8], in experiment [9] and in experiment [10] was > 30 µM (inactive) each time.
With `COCC(=O)NC/C=C/c1ccc2ncnc(Nc3ccc(Oc4ccc(C)nc4)c(C)c3)c2c1` [CP-724714], the Kd in experiment [1], in experiment [2], in experiment [3], in experiment [4], in experiment [5] and in experiment [6] was > 30 µM (inactive) each time. Besides, the Kd in experiment [7], in experiment [8], in experiment [9] and in experiment [10] was > 30 µM (inactive) throughout.
Regarding `C#Cc1cccc(Nc2ncnc3cc(OC)c(OCCCCCCC(=O)NO)cc23)c1` [CUDC-101], the Kd in experiment [1], in experiment [2], in experiment [3], in experiment [4], in experiment [5] and in [6] was > 30 µM (inactive) in each case. The Kd in [7], in [8], in experiment [9] and in experiment [10] was > 30 µM (inactive) throughout.
